For experiment [1], the system named is esophageal squamous cell carcinoma KYSE-150 cells. Description: Cellular IC50 in KYSE-150 cells. In kind it is cell-based. The settings on record: Homo sapiens, one class given per A and B pair. The text has this:
Table 7 provides IC50 values of various compounds disclosed herein, tested in cellular human esophageal squamous cell carcinoma KYSE-150 cells: […]

A further experiment deals with Jarid1B (Homo sapiens (Human), UniProt Q9UGL1). Description: In vitro enzyme inhibition assay for Jarid1B activity (TR-FRET). In kind it is biochemical. The method, then: The ability of test compounds to inhibit the activity of Jarid1B was determined in 384-well plate format under the following reaction conditions: 0.8 nM Jarid1B, 300 nM H3K4me3-biotin labeled peptide (Anaspec cat #64357), 2 μM alpha-ketoglutaric acid in assay buffer of 50 mM HEPES, pH7.3, 0.005% Brij35, 0.5 mM TCEP, 0.2 mg/ml BSA, 50 μM sodium L-ascorbate, and 2 μM ammonium iron(II) sulfate. Reaction product was determined quantitatively by TR-FRET after the addition of detection reagent Phycolink Streptavidin-allophycocyanin (Prozyme) and Europium-anti-H3K4me or -H3K4me2 antibody (PerkinElmer) in the presence of 5 mM EDTA in LANCE detection buffer (PerkinElmer) at a final concentration of 25 nM and 1 nM, respectively.
(§1) The assay reaction was initiated by the following: 2 μl of the mixture of 900 nM H3K4me3-biotin labeled peptide and 6 μM alpha-ketoglutaric acid with 2 μl of 11-point serial diluted inhibitor in 3% DMSO was added to each well of the plate, followed by the addition of 2 μl of 2.4 nM Jarid1B to initiate the reaction. The reaction mixture was incubated at RT for 30 min, and terminated by the addition of 6 μl of 5 mM EDTA in LANCE detection buffer containing 50 nM Phycolink Streptavidin-allophycocyanin and 2 nM Europium-anti-H3K4me/H3K4me2 antibody. Plates were read by EnVisionMultilabel Reader in TR-FRET mode (excitation at 320 nm, emission at 615 nm and 665 nm) after 1 hr incubation at RT. A ratio was calculated (665/615) for each well and fitted to determine inhibition constant (IC50).
(In general: TR-FRET usually uses a lanthanide donor and a delayed reading to cut background.)

Another experiment deals with JMJD2C (Homo sapiens (Human), UniProt Q9H3R0). The experiment in a line: In vitro enzyme inhibition assay for JMJD2C activity (TR-FRET). In kind it is biochemical. The method, then:
This assay determines the ability of a test compound to inhibit JMJD2C demethylase activity. Baculovirus expressed JMJD2C (GenBank Accession #BC143571, AA 2-372) was purchased from BPS Bioscience (Cat#50105).
The ability of test compounds to inhibit the activity of JMJD2C was determined in 384-well plate format under the following reaction conditions: 0.3 nM JMJD2C, 300 nM H3K9me3-biotin labeled peptide (Anaspec cat #64360), 2 μM alpha-ketoglutaric acid in assay buffer of 50 mM HEPES, pH7.3, 0.005% Brij35, 0.5 mM TCEP, 0.2 mg/ml BSA, 50 μM sodium L-ascorbate, and 2 μM ammonium iron(II) sulfate. Reaction product was determined quantitatively by TR-FRET after the addition of detection reagent Phycolink Streptavidin-allophycocyanin (Prozyme) and Europium-anti-di-methylated histone H3 lysine 9 (H3K9me2) antibody (PerkinElmer) in the presence of 5 mM EDTA in LANCE detection buffer (PerkinElmer) at a final concentration of 50 nM and 1 nM, respectively.
as §1, with “nM H3K9me3-biotin” for “nM H3K4me3-biotin”, “DMSO were” for “DMSO was”, “of 0.9” for “of 2.4”, “nM JMJD2C” for “nM Jarid1B”, “containing 100” for “containing 50”, “nM Europium-anti-H3K9me2” for “nM Europium-anti-H3K4me/H3K4me2”

The target in the next experiment is JMJD3 (Homo sapiens, UniProt O15054). The experiment in a line: In vitro enzyme inhibition assay for JMJD3 activity (TR-FRET). In kind it is biochemical. On the procedure:
This assay determines the ability of a test compound to inhibit JMJD3 demethylase activity. Baculovirus expressed JMJD3 (GenBank Accession #NM-001080424, AA1043-end) was purchased from BPS Bioscience (Cat#50115).
The enzymatic assay of JMJD3 activity is based upon Time Resolved-Fluorescence Resonance Energy Transfer (TR-FRET) detection. The ability of test compounds to inhibit the activity of JMJD3 was determined in 384-well plate format under the following reaction conditions: 5 nM JMJD3, 250 nM H3K27me3-biotin labeled peptide (Anaspec cat #64367), 0.4 to 2 μM α-ketoglutaric acid in assay buffer of 50 mM HEPES, pH7.3, 0.005% Brij35, 0.5 mM TCEP, 0.2 mg/ml BSA, 50 μM sodium L-ascorbate, and 5 μM ammonium iron(II) sulfate. Reaction product was determined quantitatively by TR-FRET after the addition of detection reagent Phycolink Streptavidin-allophycocyanin (Prozyme) and Europium-anti-H3K27me2 antibody (PerkinElmer) in the presence of 5 mM EDTA in LANCE detection buffer (PerkinElmer) at a final concentration of 50 nM and 1 nM, respectively.
The assay reaction was initiated by the following: […] of the mixture of 750 nM H3K27me3-biotin labeled peptide and 1.2 to 6 μM alpha-ketoglutaric acid with 2 μL of 11-point serial diluted inhibitor in 3% DMSO were added to each well of plate, followed by the addition of 2 μl of 15 nM JMJD3 to initiate the reaction. The reaction mixture was incubated at RT for 30 min, and terminated by the addition of 6 μL of 5 mM EDTA in LANCE detection buffer containing 100 nM Phycolink Streptavidin-allophycocyanin and 2 nM Europium-anti-H3K27me2 antibody. Plates were read by EnVisionMultilabel Reader in TR-FRET mode (excitation at 320 nm, emission at 615 nm and 665 nm) after 1 hr incubation at RT. A ratio from the readout of 665/615 was calculated for each well and fitted to determine inhibition constant (IC50).

[2] abbreviates: Table 4, cell gives A/B enantiomer values.
Where [3] appears, read: Table 5, one class given per A and B pair.

The structures appear in SMILES notation.

As a reminder, the IC50 is the concentration needed to halve the response being measured.

Chain of Jarid1B (Q9UGL1 whole entry, species assumed): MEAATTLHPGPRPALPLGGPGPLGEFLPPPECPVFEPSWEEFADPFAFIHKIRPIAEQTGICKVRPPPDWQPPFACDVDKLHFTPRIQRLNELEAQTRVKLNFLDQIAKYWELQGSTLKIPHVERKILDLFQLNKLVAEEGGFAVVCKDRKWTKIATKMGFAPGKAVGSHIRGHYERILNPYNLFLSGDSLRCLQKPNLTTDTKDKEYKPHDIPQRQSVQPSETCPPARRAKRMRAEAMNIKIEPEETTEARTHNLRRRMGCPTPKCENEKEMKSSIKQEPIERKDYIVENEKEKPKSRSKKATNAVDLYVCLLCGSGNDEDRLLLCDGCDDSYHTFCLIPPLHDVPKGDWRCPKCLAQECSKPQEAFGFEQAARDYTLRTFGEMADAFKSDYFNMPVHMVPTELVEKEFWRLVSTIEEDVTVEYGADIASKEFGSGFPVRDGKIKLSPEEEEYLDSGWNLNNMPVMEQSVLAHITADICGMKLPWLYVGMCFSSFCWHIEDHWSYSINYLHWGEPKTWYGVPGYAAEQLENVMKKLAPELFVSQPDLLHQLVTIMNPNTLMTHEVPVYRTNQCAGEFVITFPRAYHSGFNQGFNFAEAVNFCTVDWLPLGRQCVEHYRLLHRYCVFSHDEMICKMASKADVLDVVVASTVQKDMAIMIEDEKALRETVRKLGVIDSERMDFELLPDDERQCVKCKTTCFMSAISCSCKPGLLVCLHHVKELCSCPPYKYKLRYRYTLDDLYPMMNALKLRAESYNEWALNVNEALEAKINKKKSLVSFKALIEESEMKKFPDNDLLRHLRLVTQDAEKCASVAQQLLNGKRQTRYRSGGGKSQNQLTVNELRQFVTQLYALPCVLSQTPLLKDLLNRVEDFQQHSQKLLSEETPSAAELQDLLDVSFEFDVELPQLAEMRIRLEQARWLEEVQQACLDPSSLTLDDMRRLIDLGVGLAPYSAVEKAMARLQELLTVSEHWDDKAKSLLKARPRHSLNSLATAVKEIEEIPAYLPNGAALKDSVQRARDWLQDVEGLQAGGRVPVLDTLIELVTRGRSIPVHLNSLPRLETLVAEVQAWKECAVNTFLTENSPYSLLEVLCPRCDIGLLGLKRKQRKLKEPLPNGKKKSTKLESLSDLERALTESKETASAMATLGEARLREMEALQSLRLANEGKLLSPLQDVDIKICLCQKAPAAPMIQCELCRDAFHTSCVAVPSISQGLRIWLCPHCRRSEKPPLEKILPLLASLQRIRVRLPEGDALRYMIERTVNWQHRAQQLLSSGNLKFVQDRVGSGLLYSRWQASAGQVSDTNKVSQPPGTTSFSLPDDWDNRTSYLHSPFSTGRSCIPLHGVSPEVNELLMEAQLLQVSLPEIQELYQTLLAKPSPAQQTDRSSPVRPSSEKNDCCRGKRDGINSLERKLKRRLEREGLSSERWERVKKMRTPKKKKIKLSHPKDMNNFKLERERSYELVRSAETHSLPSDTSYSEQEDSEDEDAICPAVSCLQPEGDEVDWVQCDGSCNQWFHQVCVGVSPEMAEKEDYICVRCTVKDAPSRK
Chain of JMJD2C (Q9H3R0 2-372): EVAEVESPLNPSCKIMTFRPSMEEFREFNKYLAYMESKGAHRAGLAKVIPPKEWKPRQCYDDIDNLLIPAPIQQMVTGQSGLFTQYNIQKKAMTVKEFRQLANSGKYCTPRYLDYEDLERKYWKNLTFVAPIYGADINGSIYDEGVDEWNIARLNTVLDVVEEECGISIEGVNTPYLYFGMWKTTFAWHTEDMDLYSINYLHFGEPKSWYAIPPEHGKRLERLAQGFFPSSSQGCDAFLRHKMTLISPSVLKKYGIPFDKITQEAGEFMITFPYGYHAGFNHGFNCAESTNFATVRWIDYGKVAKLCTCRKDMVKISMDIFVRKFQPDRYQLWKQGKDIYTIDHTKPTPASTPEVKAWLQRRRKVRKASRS

Take `Cc1ccc(N(C)c2ccc3c(c2)CCN[C@H]3CNc2cnccc2C(=O)O)cc1` [Example 1B, 3-[({(1R)-6-[methyl(4-methylphenyl)amino]-1,2,3,4-tetrahydroisoquinolyl}methyl)amino]pyridine-4-carboxylic acid]: the IC50 in experiment [1] was 1000 to 10000 nM; against Jarid1B (setting [2]), at most 100 nM; against Jarid1B (setting [3]), at most 100 nM; at JMJD2C (setting [2]) it was 100 to 1000 nM; on JMJD2C (setting [3]), 100 to 1000 nM.

On to `CC(C)c1ccc(N(C)c2ccc3c(c2)CCN[C@H]3CNc2cnccc2C(=O)O)cc1` [Example 3B, 3-{[((1R)-6-{methyl[4-isopropylphenyl]amino}-1,2,3,4-tetrahydroisoquinolyl)methyl]amino}pyridine-4-carboxylic acid], for which the IC50 in experiment [1] was at most 100 nM; against JMJD3 (setting [2]), 0.1 to 1 µM; at JMJD3 (setting [3]) it was 0.1 to 1 µM; against Jarid1B (setting [2]), at most 100 nM; against Jarid1B (setting [3]), at most 100 nM; against JMJD2C (setting [2]), 100 to 1000 nM. On JMJD2C (setting [3]), the IC50 is 100 to 1000 nM.

For the compound `Cc1cc(OCC2CC2)ccc1-c1ccc2c(c1)CCN[C@@H]2CNc1cnccc1C(=O)O` [Example 4A, 3-[({(1S)-6-[4-(cyclopropylmethoxy)-2-methylphenyl]-1,2,3,4-tetrahydro-isoquinolyl}methyl)amino]pyridine-4-carboxylic acid], the IC50 in experiment [1] was 100 to 1000 nM; against JMJD3 (setting [2]), 1 to 10 µM; against JMJD3 (setting [3]), above 10 µM; at Jarid1B (setting [2]), at most 100 nM; against Jarid1B (setting [3]), at most 100 nM; on JMJD2C (setting [2]), 1000 to 10000 nM. Also, the IC50 at JMJD2C (setting [3]) fell in the range of 100 to 1000 nM.

Take `Cc1cc(OCC2CC2)ccc1-c1ccc2c(c1)CCN[C@H]2CNc1cnccc1C(=O)O` [Example 4B, 3-[({(1R)-6-[4-(cyclopropylmethoxy)-2-methylphenyl]-1,2,3,4-tetrahydro-isoquinolyl}methyl)amino]pyridine-4-carboxylic acid]: the IC50 in experiment [1] is 100 to 1000 nM; at JMJD3 (setting [2]), above 10 µM; at JMJD3 (setting [3]), above 10 µM; on Jarid1B (setting [2]) it was at most 100 nM; against Jarid1B (setting [3]), at most 100 nM; against JMJD2C (setting [2]) it was 1000 to 10000 nM. Moreover, the IC50 against JMJD2C (setting [3]) lay within 100 to 1000 nM.

Turning to `Cc1ccc(N(C)c2ccc3c(c2)CN[C@@H]3CNc2cnccc2C(=O)O)cc1` [Example 5A, 3-[({(1S)-5-[methyl(4-tolyl)amino]isoindolinyl}methyl)amino]pyridine-4-carboxylic acid], the IC50 in experiment [1] is 1000 to 10000 nM; on Jarid1B (setting [2]), at most 100 nM; against Jarid1B (setting [3]) it was at most 100 nM.

Regarding `Cc1ccc(N(C)c2ccc3c(c2)CN[C@H]3CNc2cnccc2C(=O)O)cc1` [Example 5B, 3-[({(1R)-5-[methyl(4-tolyl)amino]isoindolinyl}methyl)amino] pyridine-4-carboxylic acid], the IC50 in experiment [1] was 1000 to 10000 nM; at Jarid1B (setting [2]), at most 100 nM; on Jarid1B (setting [3]), at most 100 nM.

For `CC(C)c1ccc(N(C)c2ccc3c(c2)CN[C@@H]3CNc2cnccc2C(=O)O)cc1` [Example 6A, 3-{[((1S)-5-{methyl[4-isopropylphenyl]amino}isoindolinyl)methyl]amino}pyridine-4-carboxylic acid], the IC50 in experiment [1] is 100 to 1000 nM; on JMJD3 (setting [2]) it was 1 to 10 µM; at JMJD3 (setting [3]), 1 to 10 µM; against Jarid1B (setting [2]), at most 100 nM; at Jarid1B (setting [3]), at most 100 nM; against JMJD2C (setting [2]) it was 1000 to 10000 nM. Also, the IC50 against JMJD2C (setting [3]) was 1000 to 10000 nM.

Consider `CC(C)c1ccc(N(C)c2ccc3c(c2)CN[C@H]3CNc2cnccc2C(=O)O)cc1` [Example 6B, 3-{[((1R)-5-{methyl[4-isopropylphenyl]amino}isoindolinyl)methyl]amino}pyridine-4-carboxylic acid], for which the IC50 in experiment [1] is 100 to 1000 nM; against JMJD3 (setting [2]), above 10 µM; at JMJD3 (setting [3]), 1 to 10 µM; against Jarid1B (setting [2]) it was at most 100 nM; against Jarid1B (setting [3]) it was at most 100 nM; on JMJD2C (setting [2]), 1000 to 10000 nM. For the same compound, on JMJD2C (setting [3]), the IC50 fell in the range of 1000 to 10000 nM.

On to `CCc1ccccc1-c1ccc2c(c1)CCN(C)[C@H]2CNc1cnccc1C(=O)O` [Example 15A, (R)-3-(((6-(2-ethylphenyl)-2-methyl-1,2,3,4-tetrahydroisoquinolin-1-yl)methyl)amino)isonicotinic acid], for which the IC50 was 1 to 10 µM on JMJD3 (setting [3]), at most 100 nM at Jarid1B (setting [3]) and 100 to 1000 nM on JMJD2C (setting [3]).

For the compound `CCc1ccccc1-c1ccc2c(c1)CCN(C)[C@@H]2CNc1cnccc1C(=O)O` [Example 15B, (S)-3-(((6-(2-ethylphenyl)-2-methyl-1,2,3,4-tetrahydroisoquinolin-1-yl)methyl)amino)isonicotinic acid], the results for the IC50 against JMJD3 (setting [3]), against Jarid1B (setting [3]) and on JMJD2C (setting [3]) were 1 to 10 µM, at most 100 nM and 100 to 1000 nM, respectively.

Consider `CC(C)c1ccccc1-c1ccc2c(c1)CCN(C)[C@H]2CNc1cnccc1C(=O)O` [Example 16A, (R)-3-(((6-(2-isopropylphenyl)-2-methyl-1,2,3,4-tetrahydroisoquinolin-1-yl)methyl)amino)isonicotinic acid], for which the figures for the IC50 on Jarid1B (setting [3]) and on JMJD2C (setting [3]) were at most 100 nM and 1000 to 10000 nM, respectively.

Consider `CC(C)c1ccccc1-c1ccc2c(c1)CCN(C)[C@@H]2CNc1cnccc1C(=O)O` [Example 16B, (S)-3-(((6-(2-isopropylphenyl)-2-methyl-1,2,3,4-tetrahydroisoquinolin-1-yl)methyl)amino)isonicotinic acid], for which the results for the IC50 at Jarid1B (setting [3]) and against JMJD2C (setting [3]) were at most 100 nM and 1000 to 10000 nM, respectively.

For the compound `Cc1cccc(C)c1-c1ccc2c(c1)CCN(C)[C@H]2CNc1cnccc1C(=O)O` [Example 17A, (R)-3-(((6-(2,6-dimethylphenyl)-2-methyl-1,2,3,4-tetrahydroisoquinolin-1-yl)methyl)amino)isonicotinic acid], the IC50 on Jarid1B (setting [3]) is at most 100 nM; at JMJD2C (setting [3]) it was 1000 to 10000 nM.

As to `Cc1cccc(C)c1-c1ccc2c(c1)CCN(C)[C@@H]2CNc1cnccc1C(=O)O` [Example 17B, (S)-3-(((6-(2,6-dimethylphenyl)-2-methyl-1,2,3,4-tetrahydroisoquinolin-1-yl)methyl)amino)isonicotinic acid], the half-inhibitory concentration (IC50) is at most 100 nM at Jarid1B (setting [3]) and 1000 to 10000 nM at JMJD2C (setting [3]).

The values above are taken from patent US10059687B2, “Histone demethylase inhibitors” (CELGENE QUANTICEL RESEARCH, INC., priority 2015, dated 2018).
